Laboratory results published in PubChem BioAssay (NCI).
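Following 48 hours of exposure in 96-well plates, responses at five concentrations were used to interpolate endpoints linearly. GI50: concentration for 50% inhibition of growth. At the TGI there is no net growth.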 Where a SMILES comes first, the peptide text is derived from it. [ ]: non-standard residue; d: D form. Phe(4-Cl) = N[CH](Cc1ccc(Cl)cc1)C(=O)O; 2Nal = N[CH](Cc1ccc2ccccc2c1)C(=O)O; 3Pal = N[CH](Cc1cccnc1)C(=O)O

Columns and labels:
Test in all cases: inhibition of tumour cell growth, NCI panel, 48 h; in the data active = GI50 below about 0.43 µM; inactive = the rest
NCI-H23 lung = test system: NCI-H23 lung
NCI-H226 lung = test system: NCI-H226 lung
HOP-92 NSCLC = test system: HOP-92 NSCLC
BT-549 breast = test system: BT-549 breast
UACC-257 melanoma = test system: UACC-257 melanoma
MOLT-4 leukemia = test system: MOLT-4 leukemia
HL-60(TB) leukemia = test system: HL-60(TB) leukemia
CCRF-CEM leukemia = test system: CCRF-CEM leukemia
UACC-62 melanoma = test system: UACC-62 melanoma
NCI/ADR-RES ovarian = test system: NCI/ADR-RES ovarian
TK-10 renal = test system: TK-10 renal
MDA-MB-435 = test system: MDA-MB-435
K-562 leukemia = test system: K-562 leukemia
OVCAR-4 ovarian = test system: OVCAR-4 ovarian
SK-MEL-5 melanoma = test system: SK-MEL-5 melanoma
RPMI-8226 leukemia = test system: RPMI-8226 leukemia
OVCAR-8 ovarian = test system: OVCAR-8 ovarian
COLO 205 colon = test system: COLO 205 colon
UO-31 renal = test system: UO-31 renal
IGROV1 ovarian = test system: IGROV1 ovarian
NCI-H522 lung = test system: NCI-H522 lung
SK-OV-3 ovarian = test system: SK-OV-3 ovarian
OVCAR-5 ovarian = test system: OVCAR-5 ovarian
A498 renal = test system: A498 renal
SF-295 CNS = test system: SF-295 CNS
HT29 colon = test system: HT29 colon
CAKI-1 renal = test system: CAKI-1 renal
MALME-3M melanoma = test system: MALME-3M melanoma
A549 NSCLC = test system: A549 NSCLC
HCT-116 colon = test system: HCT-116 colon
SF-539 CNS = test system: SF-539 CNS
DU-145 prostate = test system: DU-145 prostate
HCC-2998 colon = test system: HCC-2998 colon
SK-MEL-28 melanoma = test system: SK-MEL-28 melanoma
HS 578T breast = test system: HS 578T breast
T-47D breast = test system: T-47D breast
RXF 393 renal = test system: RXF 393 renal
SN12C renal = test system: SN12C renal
SF-268 CNS = test system: SF-268 CNS
HCT-15 colon = test system: HCT-15 colon
PC-3 prostate = test system: PC-3 prostate
NCI-H460 lung = test system: NCI-H460 lung
OVCAR-3 ovarian = test system: OVCAR-3 ovarian
EKVX NSCLC = test system: EKVX NSCLC
HOP-62 NSCLC = test system: HOP-62 NSCLC
SNB-19 CNS = test system: SNB-19 CNS
SNB-75 CNS = test system: SNB-75 CNS
LOX IMVI melanoma = test system: LOX IMVI melanoma
KM12 colon = test system: KM12 colon
ACHN renal = test system: ACHN renal
SW-620 colon = test system: SW-620 colon
MCF7 breast = test system: MCF7 breast
MDA-MB-231 breast = test system: MDA-MB-231 breast
SK-MEL-2 melanoma = test system: SK-MEL-2 melanoma
M14 melanoma = test system: M14 melanoma
786-0 renal = test system: 786-0 renal
U251 CNS = test system: U251 CNS

CC(=O)NC(Cc1ccc2ccccc2c1)C(=O)NC(Cc1ccc(Cl)cc1)C(=O)NC(Cc1cccnc1)C(=O)NC(CO)C(=O)NC(Cc1ccc(O)cc1)C(=O)NC(CCCN=C(N)N)C(=O)NC(CC(C)C)C(=O)NC(CCCN=C(N)N)C(=O)N1CCCC1C(=O)NC(C)C(N)=O (stereo unspecified) (Ac-[2Nal][Phe(4-Cl)][3Pal]SYRLRPA-NH2; configuration not given here)
> 100 µM: TGI (NCI-H23 lung) | TGI (NCI-H226 lung) | TGI (HOP-92 NSCLC) | TGI (BT-549 breast) | TGI (UACC-257 melanoma)

O=C1NC(=O)c2c1c1c3ccccc3ccc1c1[nH]c3ccc(Br)cc3c21
inactive: GI50 (MOLT-4 leukemia) 1.19 µM | GI50 (NCI-H23 lung) 1.46 µM | GI50 (HL-60(TB) leukemia) 1.75 µM | GI50 (CCRF-CEM leukemia) 1.22 µM | GI50 (UACC-62 melanoma) 1.91 µM | GI50 (NCI/ADR-RES ovarian) 1.53 µM | GI50 (TK-10 renal) 2.45 µM | GI50 (MDA-MB-435) 1.66 µM | GI50 (K-562 leukemia) 0.789 µM | GI50 (OVCAR-4 ovarian) 1.74 µM | GI50 (SK-MEL-5 melanoma) 1.56 µM | GI50 (RPMI-8226 leukemia) 0.501 µM | GI50 (OVCAR-8 ovarian) 2.33 µM
5.63 µM: TGI (NCI/ADR-RES ovarian)
> 100 µM: TGI (CCRF-CEM leukemia) | TGI (TK-10 renal) | TGI (K-562 leukemia) | TGI (OVCAR-8 ovarian)
4.85 µM: TGI (OVCAR-4 ovarian)
2.87 µM: TGI (RPMI-8226 leukemia)
3.74 µM: TGI (MDA-MB-435)
6.29 µM: TGI (HL-60(TB) leukemia)
4.48 µM: TGI (NCI-H23 lung)
3.87 µM: TGI (UACC-62 melanoma)
2.94 µM: TGI (SK-MEL-5 melanoma)
4.03 µM: TGI (MOLT-4 leukemia)

CCN(CC)c1ccc(/C=C/C(=O)c2cccc(NS(C)(=O)=O)c2)cc1
> 100 µM: TGI (COLO 205 colon) | TGI (UO-31 renal) | TGI (IGROV1 ovarian) | TGI (NCI-H522 lung) | TGI (MOLT-4 leukemia) | TGI (SK-OV-3 ovarian) | TGI (OVCAR-5 ovarian) | TGI (A498 renal) | TGI (SF-295 CNS) | TGI (NCI-H23 lung) | TGI (HL-60(TB) leukemia) | TGI (NCI-H226 lung) | TGI (HT29 colon) | TGI (CAKI-1 renal) | TGI (MALME-3M melanoma) | TGI (A549 NSCLC) | TGI (HCT-116 colon) | TGI (SF-539 CNS) | TGI (DU-145 prostate) | TGI (HCC-2998 colon) | TGI (SK-MEL-28 melanoma) | TGI (HS 578T breast) | TGI (TK-10 renal) | TGI (T-47D breast) | TGI (RXF 393 renal) | TGI (SN12C renal) | TGI (SF-268 CNS) | TGI (HCT-15 colon) | TGI (PC-3 prostate) | TGI (MDA-MB-435) | TGI (NCI-H460 lung) | TGI (OVCAR-3 ovarian) | TGI (EKVX NSCLC) | TGI (HOP-62 NSCLC) | TGI (SNB-19 CNS) | TGI (SNB-75 CNS) | TGI (LOX IMVI melanoma) | TGI (K-562 leukemia) | TGI (KM12 colon) | TGI (ACHN renal) | TGI (OVCAR-4 ovarian) | TGI (SW-620 colon) | TGI (MCF7 breast) | TGI (MDA-MB-231 breast) | TGI (SK-MEL-2 melanoma) | TGI (SK-MEL-5 melanoma) | TGI (BT-549 breast) | TGI (UACC-257 melanoma) | TGI (M14 melanoma) | TGI (786-0 renal) | TGI (U251 CNS) | TGI (OVCAR-8 ovarian)
71.1 µM: TGI (HOP-92 NSCLC)
20.8 µM: TGI (RPMI-8226 leukemia)
inactive: GI50 (COLO 205 colon) 5.28 µM | GI50 (UO-31 renal) > 100 µM | GI50 (IGROV1 ovarian) > 100 µM | GI50 (NCI-H522 lung) 87.7 µM | GI50 (MOLT-4 leukemia) 4.09 µM | GI50 (SK-OV-3 ovarian) 5.27 µM | GI50 (OVCAR-5 ovarian) 35 µM | GI50 (A498 renal) 5.39 µM | GI50 (SF-295 CNS) 5.91 µM | GI50 (NCI-H23 lung) 4.51 µM | GI50 (HL-60(TB) leukemia) 20 µM | GI50 (NCI-H226 lung) 74 µM | GI50 (HT29 colon) 3.15 µM | GI50 (CAKI-1 renal) 7.97 µM | GI50 (MALME-3M melanoma) 5.79 µM | GI50 (CCRF-CEM leukemia) 3.19 µM | GI50 (A549 NSCLC) > 100 µM | GI50 (HCT-116 colon) 3.99 µM | GI50 (SF-539 CNS) 4.94 µM | GI50 (DU-145 prostate) 7.2 µM | GI50 (HCC-2998 colon) > 100 µM | GI50 (SK-MEL-28 melanoma) 43.5 µM | GI50 (HS 578T breast) 19.3 µM | GI50 (TK-10 renal) 7.53 µM | GI50 (T-47D breast) 4.29 µM | GI50 (RXF 393 renal) 58 µM | GI50 (SN12C renal) 6.69 µM | GI50 (SF-268 CNS) 18.5 µM | GI50 (HCT-15 colon) 3.44 µM | GI50 (HOP-92 NSCLC) 14 µM | GI50 (PC-3 prostate) 6.35 µM | GI50 (MDA-MB-435) 3.29 µM | GI50 (NCI-H460 lung) 4.72 µM | GI50 (OVCAR-3 ovarian) 6.37 µM | GI50 (EKVX NSCLC) 5.46 µM | GI50 (HOP-62 NSCLC) 27.6 µM | GI50 (SNB-19 CNS) 86 µM | GI50 (SNB-75 CNS) 10.6 µM | GI50 (LOX IMVI melanoma) 3.13 µM | GI50 (K-562 leukemia) 3.47 µM | GI50 (KM12 colon) 3.18 µM | GI50 (ACHN renal) 6.2 µM | GI50 (OVCAR-4 ovarian) 6.27 µM | GI50 (SW-620 colon) 3.27 µM | GI50 (MCF7 breast) 3.72 µM | GI50 (MDA-MB-231 breast) 9.7 µM | GI50 (SK-MEL-2 melanoma) > 100 µM | GI50 (SK-MEL-5 melanoma) 4.21 µM | GI50 (RPMI-8226 leukemia) 2.34 µM | GI50 (BT-549 breast) 4.67 µM | GI50 (UACC-257 melanoma) 92.5 µM | GI50 (M14 melanoma) 4.1 µM | GI50 (786-0 renal) 4.98 µM | GI50 (U251 CNS) 10.9 µM | GI50 (OVCAR-8 ovarian) > 100 µM
18.1 µM: TGI (CCRF-CEM leukemia)
